Assay results reported in patent publication US6737383B1, “Herbicidal oxadiazolidines” (priority 1999, dated 2004).

Experiments:
corn = test: Test B pre/postemergence corn; assay type: in vivo, Zea mays
Procedure, shortened: (§1)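 Herbicidal effect was estimated by eye on a ten-point control scale after plants spent twelve to sixteen days in a greenhouse following soil or foliar treatment. Foliar sprays targeted plants at one to four leaves; all doses were formulated in a non-phytotoxic solvent with surfactant.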

rape = test: Test B pre/postemergence rape; assay type: in vivo, Brassica napus
Procedure, shortened: as §1

wild oat = test: Test B pre/postemergence wild oat; assay type: in vivo, Avena fatua
Procedure, shortened: as §1

velvetleaf = test: Test B pre/postemergence velvetleaf; assay type: in vivo, Abutilon theophrasti
Procedure, shortened: as §1

smallflower flatsedge = test: Test B flood test smallflower flatsedge; assay type: in vivo, Cyperus difformis
Procedure, shortened: (§2)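 Read-out is a visual response score from 0 (no effect) to 10 (complete control), assigned by comparison with untreated controls. Treatment was applied at the 2-leaf stage, and plants stayed in the greenhouse for twelve to sixteen days before scoring.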

soybean = test: Test B pre/postemergence soybean; assay type: in vivo, Glycine max
Procedure, shortened: as §1

wheat = test: Test B pre/postemergence wheat; assay type: in vivo, Triticum aestivum
Procedure, shortened: as §1

pigweed = test: Test B pre/postemergence pigweed; assay type: in vivo, Amaranthus retroflexus
Procedure, shortened: as §1

cocklebur = test: Test B pre/postemergence cocklebur; assay type: in vivo, Xanthium strumarium
Procedure, shortened: as §1

surinam grass = test: Test B pre/postemergence surinam grass; assay type: in vivo, Brachiaria decumbens
Procedure, shortened: as §1

morningglory = test: Test B pre/postemergence morningglory; assay type: in vivo, Ipomoea hederacea
Procedure, shortened: as §1

giant foxtail = test: Test B pre/postemergence giant foxtail; assay type: in vivo, Setaria faberii
Procedure, shortened: as §1

sugar beet = test: Test B pre/postemergence sugar beet; assay type: in vivo, Beta vulgaris
Procedure, shortened: as §1

rice = test: Test B flood test rice; assay type: in vivo, Oryza sativa
Procedure, shortened: as §2

blackgrass = test: Test B pre/postemergence blackgrass; assay type: in vivo, Alopecurus myosuroides
Procedure, shortened: as §1

[1] = Postemergence, Rate 250 g/ha, scale 0 to 10
[2] = Postemergence, Rate 500 g/ha, scale of 0 to 10 where 0 is no effect and 10 is complete control
[3] = Preemergence, Rate 62 g/ha, scale of 0 to 10 where 0 is no effect and 10 is complete control
[4] = Preemergence, Rate 125 g/ha, scale of 0 to 10 where 0 is no effect and 10 is complete control
[5] = Preemergence, Rate 250 g/ha, scale 0 to 10, 0 is no effect, 10 is complete control
[6] = Preemergence, Rate 500 g/ha, scale 0 to 10, 0 is no effect, 10 is complete control
[7] = Rate 62 g/ha, Postemergence, scale 0 to 10 (0 no effect, 10 complete control)
[8] = Rate 125 g/ha, Postemergence, scale 0 to 10, 0 is no effect, 10 is complete control
[9] = Rate 62 g/ha, flood test species, Pre-emergence, visual evaluation after twelve to sixteen days
[10] = Rate 125 g/ha, under heading Pre-emergence, flood test species, visual evaluation after twelve to sixteen days
[11] = Rate 250 g/ha, Pre-emergence (flood test species), scale 0 to 10, 0 is no effect, 10 is complete control
[12] = Rate 500 g/ha, Pre-emergence, flood test species, scale 0 to 10 (0 no effect, 10 complete control)

CC(C)N(C(=O)n1oc(=O)n(CNC(=O)c2ccccc2)c1=O)c1ccc(F)cc1 [Compound 445]
Corn plant response rating (corn; [1]): 0 | Corn plant response rating (corn; [2]): 0 | Plant response rating, Corn (corn; [3]): 0 | Plant response rating, Corn (corn; [4]): 0 | Corn plant response rating (corn; [5]): 0 | Corn plant response rating (corn; [6]): 0 | Corn plant response rating (corn; [7]): 0 | Corn plant response rating (corn; [8]): 0 | Rape plant response rating (rape; [1]): 2 | Rape plant response rating (rape; [2]): 2 | Plant response rating, Rape (rape; [3]): 0 | Plant response rating, Rape (rape; [4]): 0 | Rape plant response rating (rape; [5]): 0 | Rape plant response rating (rape; [6]): 2 | Rape plant response rating (rape; [7]): 0 | Rape plant response rating (rape; [8]): 0 | Wild oats plant response rating (wild oat; [1]): 0 | Wild oats plant response rating (wild oat; [2]): 0 | Plant response rating, Wild oats (wild oat; [3]): 0 | Plant response rating, Wild oats (wild oat; [4]): 0 | Wild oats plant response rating (wild oat; [5]): 0 | Wild oats plant response rating (wild oat; [6]): 0 | Wild oats plant response rating (wild oat; [7]): 0 | Wild oats plant response rating (wild oat; [8]): 0 | Velvetleaf plant response rating (velvetleaf; [1]): 3 | Velvetleaf plant response rating (velvetleaf; [2]): 5 | Plant response rating, Velvetleaf (velvetleaf; [3]): 0 | Plant response rating, Velvetleaf (velvetleaf; [4]): 0 | Velvetleaf plant response rating (velvetleaf; [5]): 2 | Velvetleaf plant response rating (velvetleaf; [6]): 3 | Velvetleaf plant response rating (velvetleaf; [7]): 0 | Velvetleaf plant response rating (velvetleaf; [8]): 2 | Plant response rating, S. Flatsedge (0 to 10 scale, 0 is no effect, 10 is complete control) (smallflower flatsedge; [9]): 0 | S. Flatsedge plant response rating (0 to 10 scale, 0 is no effect, 10 is complete control) (smallflower flatsedge; [10]): 0 | S. Flatsedge plant response rating (smallflower flatsedge; [11]): 0 | S. Flatsedge plant response rating (smallflower flatsedge; [12]): 0 | Soybean plant response rating (soybean; [1]): 1 | Soybean plant response rating (soybean; [2]): 2 | Plant response rating, Soybean (soybean; [3]): 0 | Plant response rating, Soybean (soybean; [4]): 0 | Soybean plant response rating (soybean; [6]): 0 | Soybean plant response rating (soybean; [7]): 1 | Soybean plant response rating (soybean; [8]): 1 | Wheat plant response rating (wheat; [1]): 0 | Wheat plant response rating (wheat; [2]): 0 | Plant response rating, Wheat (wheat; [3]): 0 | Plant response rating, Wheat (wheat; [4]): 0 | Wheat plant response rating (wheat; [5]): 0 | Wheat plant response rating (wheat; [6]): 0 | Wheat plant response rating (wheat; [7]): 0 | Wheat plant response rating (wheat; [8]): 0 | Redroot pigweed plant response rating (pigweed; [2]): 4 | Plant response rating, Redroot pigweed (pigweed; [3]): 0 | Plant response rating, Redroot pigweed (pigweed; [4]): 2 | Redroot pigweed plant response rating (pigweed; [5]): 4 | Redroot pigweed plant response rating (pigweed; [6]): 10 | Redroot pigweed plant response rating (pigweed; [7]): 0 | Redroot pigweed plant response rating (pigweed; [8]): 0 | Cocklebur plant response rating (cocklebur; [1]): 2 | Cocklebur plant response rating (cocklebur; [2]): 2 | Plant response rating, Cocklebur (cocklebur; [3]): 0 | Plant response rating, Cocklebur (cocklebur; [4]): 0 | Cocklebur plant response rating (cocklebur; [5]): 0 | Cocklebur plant response rating (cocklebur; [7]): 0 | Cocklebur plant response rating (cocklebur; [8]): 2 | B. signalgrass plant response rating (surinam grass; Postemergence, Rate 250 g/ha, scale 0 to 10, 0 no effect, 10 complete control): 0 | B. signalgrass plant response rating (surinam grass; [2]): 0 | Plant response rating, B. signalgrass (surinam grass; [3]): 0 | Plant response rating, B. signalgrass (surinam grass; [4]): 0 | B. signalgrass plant response rating (surinam grass; [5]): 2 | B. signalgrass plant response rating (surinam grass; [6]): 3 | B. signalgrass plant response rating (surinam grass; [7]): 0 | B. signalgrass plant response rating (surinam grass; [8]): 0 | Morningglory plant response rating (morningglory; [1]): 4 | Morningglory plant response rating (morningglory; [2]): 8 | Plant response rating, Morningglory (morningglory; [3]): 0 | Plant response rating, Morningglory (morningglory; [4]): 0 | Morningglory plant response rating (morningglory; [5]): 0 | Morningglory plant response rating (morningglory; [6]): 0 | Morningglory plant response rating (morningglory; [7]): 3 | Morningglory plant response rating (morningglory; [8]): 4 | Giant foxtail plant response rating (giant foxtail; [1]): 1 | Giant foxtail plant response rating (giant foxtail; [2]): 2 | Plant response rating, Giant foxtail (giant foxtail; [3]): 0 | Plant response rating, Giant foxtail (giant foxtail; [4]): 0 | Giant foxtail plant response rating (giant foxtail; [5]): 5 | Giant foxtail plant response rating (giant foxtail; [6]): 9 | Giant foxtail plant response rating (giant foxtail; [7]): 0 | Giant foxtail plant response rating (giant foxtail; [8]): 0 | Sugarbeets plant response rating (sugar beet; [1]): 0 | Sugarbeets plant response rating (sugar beet; [2]): 0 | Plant response rating, Sugarbeets (sugar beet; [3]): 0 | Plant response rating, Sugarbeets (sugar beet; [4]): 0 | Sugarbeets plant response rating (sugar beet; [5]): 0 | Sugarbeets plant response rating (sugar beet; [6]): 0 | Sugarbeets plant response rating (sugar beet; [7]): 0 | Sugarbeets plant response rating (sugar beet; [8]): 0 | Plant response rating, Rice (0 to 10 scale, 0 is no effect, 10 is complete control) (rice; [9]): 0 | Rice plant response rating (0 to 10 scale, 0 is no effect, 10 is complete control) (rice; [10]): 0 | Rice plant response rating (rice; [11]): 0 | Rice plant response rating (rice; [12]): 0 | Blackgrass plant response rating (blackgrass; [1]): 0 | Blackgrass plant response rating (blackgrass; [2]): 0 | Plant response rating, Blackgrass (blackgrass; [3]): 0 | Plant response rating, Blackgrass (blackgrass; [4]): 0 | Blackgrass plant response rating (blackgrass; [5]): 0 | Blackgrass plant response rating (blackgrass; [6]): 1 | Blackgrass plant response rating (blackgrass; [7]): 0 | Blackgrass plant response rating (blackgrass; [8]): 0
